Tests used:
[1] = tested on: Npc1^−/− mice; assay: Survival / life span of Npc1−/− mice; assay type: in vivo, mouse
Experimental: (§1) BALBc/NPC ^h and Sandhoff mice were bred as heterozygotes to generate affected mice (Npc1^−/−, Hexb^−/−) and controls (Npc^+/+, Hexb^+/+). The mice were housed under non-sterile conditions, with food and water available ad libitum. All experiments were conducted using protocols approved by the UK Home Office Animal Scientific Procedures Act, 1986.
ADLL and enantiomers (ADLL: Molekula #73891210, ALL: Sigma Aldrich #441511, ADL: Sigma #A0876) were administered as dry admix in powdered mouse diet (PicoLab Rodent Diet 20/5053, LabDiet) at a dose of 0.1 g/kg/day for in vivo studies. Treatment groups for in vivo study consisted of at least 5 mice per group. In vitro studies were conducted with each compound dissolved in PBS to generate a 50 mM stock solution and diluted to a 1 mM working concentration in media (DMEM High Glucose-Gibco #10566016).
Miglustat (Monsanto/Oxford GlycoSciences) was administered as a dry solid mixed with powdered chow (600 mg/kg/day) (see above) alone or in combination with ADLL.
(§2) The weight and activity of each mouse was recorded weekly until reaching the humane endpoint (defined as a loss of 1 g body weight within 24 h). Gait analysis was performed using CatWalk 10.5 system (Noldus) according to the manufacturer's instructions and five runs were recorded per animal at each time point. The camera was set to 40 cm below the walkway, the walkway was approximately 4 cm wide, and detection settings set to camera gain 14.05 and green intensity 0.12. Motor function was measured using an accelerating NG Rota Rod for mice (Ugo Basile) starting from 1 rpm to 10 rpm, accelerating every 30 seconds by one rpm. Bar crossing experiments on Sandhoff animals were conducted to measure motor strength and coordination. The apparatus used was modified from published studies. […] Latency to cross or fall from the bar was scored, with 120 sec, maximum, to termination of each trial. […]

[2] = tested on: Sandhoff (Hexb^−/−) mice; assay: Survival of Sandhoff (Hexb−/−) mice; assay type: in vivo, mouse; conditions: Hexb−/− mice treated from weaning, 0.1 g/kg/day
Experimental: as §1
[…] Treatment groups for in vivo study consisted of at least 5 mice per group. In vitro studies were conducted with each compound dissolved in PBS to generate a 50 mM stock solution and diluted to a 1 mM working concentration in media (DMEM High Glucose-Gibco #10566016).
as §2, with “rpm.” for “rpm. Bar crossing experiments on Sandhoff animals were conducted to measure motor strength and coordination. The apparatus used was modified from published studies.”

[3] = tested on: NPC patients; assay: Observational clinical study of adult NPC patients treated with ADLL; assay type: in vivo, human
Source text: Progression of a LSD or one or more symptoms of a LSD over time or through treatment can be monitored, for example, using one or more known tests at two or more time points and comparing the results. Disease progression and/or severity can be assessed, for example, using the Scale for the Assessment and Rating of Ataxia (SARA), Spinocerebellar Ataxia Functional Index (SCAFI), the International Cooperative Ataxia Rating Scale (ICARS), the brief ataxia rating scale (BARS), the modified Disability Rating Scale (mDRS), EuroQol 5Q-5D-5L (EQ-5D-5L), the visual analogue scale (VAS), Wechsler Adult Intelligence Scale-Revised (WAIS-R), Wechsler Intelligence Scale for Children-IV (WISC-IV), Montreal Cognitive Assessment (MoCA) or other suitable tests. For certain LSDs, such as NPC, particular scores have been developed and validated over the last decades, for instance the clinical severity score (CSS) and annual severity increment score (ASIS) (see Yanjanin et al., “Linear Clinical Progression, Independent of Age of Onset, in Niemann—Pick Disease, Type C,” Am J Med Genet Part B 153B:132-140) and the modified 6-Domain NP-C disability Scale (mDRS score). For example, an NPC patient's severity can be quantified by assigning a CSS, which assesses various parameters of the disease (ambulation, seizures, eye movement, etc.) and gives each parameter a score out of 5. A higher score equals a greater severity. The ASIS quantifies the annual rate of change in the CSS, calculated by dividing the CSS by the patient's age. In this regard, certain scores in these tests are characteristic of symptomatic LSD patients and evidence disease progression and/or severity.
Demographics and statistical analysis of a clinical observational study of adult NPC patients treated with ADLL: The cohort comprised 3 females and 10 males. Consent from all participants was obtained. Twelve of the NPC patients were on miglustat therapy (minimum exposure 2.65, 1t^st quartile 3.44, median 4.92, mean 4.87, 3rd quartile 5.80 and maximum 7.98 years). The thirteen NPC1 patients participated in an observational study treated with 5 g/day acetyl-DL-leucine (Tanganil™). Three patients had four prospective clinical severity score measurements and ten patients had five measurements taken during this observational study (NIH, CSS). Retrospective data were used to calculate rates of disease progression prior to recruitment to this study. The mean age at the start of acetyl-DL-leucine (Tanganil™) treatment was 26.59 years. The minimum age was 15.44, 1s^t quartile 20.97, median 26.98 and third quartile 30.79 with maximum age 37.37 years. The time in the observational treatment study was a […], 1st quartile 0.81, median 1, mean 0.95, third quartile 1.13 and maximum 1.21 years.

[4] = tested on: Sandhoff (Hexb^−/−) mice; assay: Bar crossing test in Sandhoff (Hexb−/−) mice; assay type: in vivo, mouse; conditions: 12 and 13 weeks
Experimental: as §1
ADLL and enantiomers (ADLL: Molekula #73891210, ALL: Sigma Aldrich #441511, ADL: Sigma #A0876) were administered as dry admix in powdered mouse diet (PicoLab Rodent Diet 20/5053, LabDiet) at a dose of 0.1 g/kg/day for in vivo studies. Treatment groups for in vivo study consisted of at least 5 mice per group. […]
The weight and activity of each mouse was recorded weekly until reaching the humane endpoint (defined as a loss of 1 g body weight within 24 h). Gait analysis was performed using CatWalk 10.5 system (Noldus) according to the manufacturer's instructions and five runs were recorded per animal at each time point. […] Motor function was measured using an accelerating NG Rota Rod for mice (Ugo Basile) starting from 1 rpm to 10 rpm, accelerating every 30 seconds by one rpm. […] Latency to cross or fall from the bar was scored, with 120 sec, maximum, to termination of each trial. […]

[5] = number of the 13 treated NPC patients, neurological subdomain

With `CC(=O)N[C@H](CC(C)C)C(=O)O` [ADL, N-acetyl-D-leucine] the “increase in life span” value ([1]; Npc1−/− mice treated from weaning, 0.1 g/kg/day, relative to untreated Npc1−/−) was “not changed”.

`CC(=O)NC(CC(C)C)C(=O)O` (racemic) [ADLL, N-acetyl-DL-leucine] was tested, and the “median increase in lifespan” value [2] was 8 days, the median survival ([1]; Npc1−/− mice, ADLL 0.1 g/kg/day, miglustat 600 mg/kg/day in chow, untreated Npc1−/− 87 days) was 91 days and the “mean change in Annual Severity Increment Scores (ASIS)” value ([3]; 13 NPC patients) was −9.1 %/year. The “average slope of disease progression (total clinical severity score) following initiation of treatment” value ([3]; 13 adult NPC patients, 5 g/day, 12 also on miglustat, average slope before treatment 1.8) was −1.78 severity units/year, the “Ambulation: Deteriorated” value [3, 5] was 1 and the “Ambulation: Improved” value [3, 5] was 8. The “Ambulation: Stable” value [3, 5] was 4, the “Cognition: Deteriorated” value [3, 5] was 1 and the “Cognition: Improved” value [3, 5] was 6. The “Cognition: Stable” value [3, 5] was 6, the “Eye movement: Deteriorated” value [3, 5] was 1 and the “Eye movement: Improved” value [3, 5] was 8. The “Eye movement: Stable” value [3, 5] was 4, the “Fine motor skills: Deteriorated” value [3, 5] was 2 and the “Fine motor skills: Improved” value [3, 5] was 8. For the same compound, the “Fine motor skills: Stable” value [3, 5] was 3, the “Memory: Deteriorated” value [3, 5] was 1 and the “Memory: Improved” value [3, 5] was 10. The “Memory: Stable” value [3, 5] was 2, the “Speech: Deteriorated” value [3, 5] was 3 and the “Speech: Improved” value [3, 5] was 3. For the same compound, the “Speech: Stable” value [3, 5] was 7, the “Swallow: Deteriorated” value [3, 5] was 1 and the “Swallow: Improved” value [3, 5] was 10. The “Swallow: Stable” value [3, 5] was 2, the “patients with negative slopes following initiation of treatment” value ([3]; of 13 NPC patients) was 10 and the “patients with no slope following initiation of treatment” value ([3]; of 13 NPC patients) was 3. The Bar-crossing test performance [4] was “significantly improved”.
